Consider 35 compounds from patent US20250221966A1, “RXFP1 AGONISTS” (BRISTOL-MYERS SQUIBB COMPANY, priority 2021, published 2025).

This assay addresses T1, human RXFP1 (Homo sapiens, UniProt Q9HBX9).
T1 construct: expressed in transfected cells
T1 sequence (Q9HBX9 1-757): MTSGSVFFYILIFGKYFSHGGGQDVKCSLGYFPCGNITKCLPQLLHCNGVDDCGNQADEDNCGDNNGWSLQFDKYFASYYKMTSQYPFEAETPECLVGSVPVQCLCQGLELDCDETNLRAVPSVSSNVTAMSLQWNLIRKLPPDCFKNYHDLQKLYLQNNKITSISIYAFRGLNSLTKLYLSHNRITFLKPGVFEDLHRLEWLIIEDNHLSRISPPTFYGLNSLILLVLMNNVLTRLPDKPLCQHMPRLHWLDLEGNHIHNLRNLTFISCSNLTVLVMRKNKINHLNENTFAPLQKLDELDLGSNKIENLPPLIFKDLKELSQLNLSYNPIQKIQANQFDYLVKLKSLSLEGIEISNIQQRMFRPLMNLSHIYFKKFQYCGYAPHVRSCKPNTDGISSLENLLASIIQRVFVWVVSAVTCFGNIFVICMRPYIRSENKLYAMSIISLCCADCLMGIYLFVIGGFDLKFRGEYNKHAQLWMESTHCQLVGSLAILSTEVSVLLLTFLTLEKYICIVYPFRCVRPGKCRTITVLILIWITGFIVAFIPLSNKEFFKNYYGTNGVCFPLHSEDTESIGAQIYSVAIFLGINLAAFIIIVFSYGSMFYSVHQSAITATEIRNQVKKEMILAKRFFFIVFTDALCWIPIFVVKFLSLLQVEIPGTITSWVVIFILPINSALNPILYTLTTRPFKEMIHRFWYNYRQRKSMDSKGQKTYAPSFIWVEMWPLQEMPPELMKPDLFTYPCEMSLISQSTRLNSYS
Description: RXFP1 cAMP assay (hRXFP1 HEK293 cAMP assay, HTRF). The class given is cell-based. The following applies: HEK293 cells stably expressing human RXFP1, 30 min at room temperature, read-out: cAMP hRXFP1 HEK293 Assay EC50. The procedure, abridged: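 hRXFP1-HEK293 stable line; HBSS + Ca/Mg, 20 mM HEPES, 0.05% BSA, 0.5 mM IBMX; cpd 0.010 nM–50 μM, 2% DMSO; 30 min RT; lysis, HTRF cAMP detection; 4-PL fit.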
A general note: Changes in cAMP serve as a functional read-out for many G protein-coupled receptors.
`COc1ccc(C2=NOC(C3(O)CCCCC3)C2)cc1C(=O)N[C@H]1[C@@H](C(=O)Nc2ccc(F)c(C(F)(F)F)c2)[C@H]2CC[C@@H]1/C2=C\C1CC1` (single isomer, unassigned) [compound 549]: the EC50 turned out to be 33 nM.

As to `COc1ccc(-c2cccnc2)cc1C(=O)N[C@@H]1C2CCC(/C2=C/C2CC2)[C@@H]1C(=O)Nc1ccc(F)c(C(F)(F)F)c1` (some centres unmarked) [compound 278], the 50% effective concentration (EC50) stood at 32 nM.

In the case of `COc1ccc(-c2cc(C(OC(=O)NC(C)(C)C)C(=O)O)ccc2F)cc1C(=O)N[C@H]1[C@@H](C(=O)Nc2ccc(F)c(C(F)(F)F)c2)[C@H]2CC[C@@H]1/C2=C\C1CC(F)(F)C1` (some centres unmarked) [compound 935], the EC50 came to 2.5 nM.

Consider `O=C(N[C@H]1[C@@H](C(=O)Nc2ccc(F)c(C(F)(F)F)c2)[C@H]2CC[C@@H]1/C2=C\C1CC1)c1cc(C2=NOC3COCC23)ccc1OCCC(F)(F)F` (some centres unmarked) [compound 780], for which the EC50 was 1.8 nM.

On to `COc1ccc(C2=NOC(CO)C2CO)cc1C(=O)N[C@H]1[C@@H](C(=O)Nc2ccc(F)c(C(F)(F)F)c2)[C@H]2CC[C@@H]1/C2=C\C1CC1` (single isomer, unassigned) [compound 657], for which the 50% effective concentration (EC50) came to 312 nM.

`COc1ccc(C2=NOC3CC(F)CC23)cc1C(=O)N[C@H]1[C@@H](C(=O)Nc2ccc(F)c(C(F)(F)F)c2)[C@H]2CC[C@@H]1/C2=C\C1CC1` (stereo partly drawn) [Example 427, (1R,2S,3R,4R,Z)-7-(cyclopropylmethylene)-N-(4-fluoro-3-(trifluoromethyl)phenyl)-3-(5-(5-fluoro-3a,5,6,6a-tetrahydro-4H-cyclopenta[d]isoxazol-3-yl)-2-methoxybenzamido)bicyclo[2.2.1]heptane-2-carboxamide]: the EC50 is 54 nM.

For `COc1ccc(C2=NOC3CC(C)(CO)CC23)cc1C(=O)N[C@H]1[C@@H](C(=O)Nc2ccc(F)c(C(F)(F)F)c2)[C@H]2CC[C@@H]1/C2=C\C1CC1` (some centres unmarked) [compound 736], the EC50 was found to be 2.4 nM.

On to `COc1ccc([C@H]2CO[C@@H]3[C@H]2OC[C@H]3O)cc1C(=O)N[C@H]1[C@@H](C(=O)Nc2ccc(F)c(C(F)(F)F)c2)[C@H]2CC[C@@H]1/C2=C\C1CC1` [compound 638], for which the half-maximal effective concentration (EC50) amounted to 207 nM.

Regarding `CCO/N=C1\C2CCC1[C@H](C(=O)Nc1ccc(F)c(C(F)(F)F)c1)[C@@H]2NC(=O)c1cc(-c2cc(C(=O)O)ccc2F)ccc1OC` (some centres unmarked) [Example 130], the EC50 turned out to be 440 nM.

On to `COc1cc(C)c(-c2nnc(CO)s2)cc1C(=O)N[C@H]1[C@@H](C(=O)N[C@H](C)C2(C)CC2)[C@H]2CC[C@@H]1/C2=C\C1CC1` [compound 810], for which the concentration for a half-maximal effect (EC50) turned out to be 4.7 nM.

For `COc1ccc(-c2cc(C(NC(=O)CC3CCOCC3)C(=O)O)ccc2F)cc1C(=O)N[C@@H]1C2CCC(/C2=C/C(F)(F)F)[C@@H]1C(=O)Nc1ccc(F)c(C(F)(F)F)c1` (some centres unmarked) [compound 242], the EC50 was 3 nM.

As to `COc1ccc(C2=NO[C@H]3C[C@H](CO)CN23)cc1C(=O)N[C@H]1[C@@H](C(=O)Nc2ccc(F)c(C(F)(F)F)c2)[C@H]2CC[C@@H]1/C2=C\C(C)C` [compound 833], the concentration for a half-maximal effect (EC50) amounted to 3.7 nM.

Turning to `COc1ccc(C2=NOC3CC(CO)CC23)cc1C(=O)N[C@H]1[C@@H](C(=O)NC23CC(C)(C2)C3)[C@H]2CC[C@@H]1/C2=C\C1CC1` (some centres unmarked) [compound 774], the EC50 was 4.1 nM.

On to `COc1ccc(C2=NOC(C3(O)CCC3)C2)cc1C(=O)N[C@H]1[C@@H](C(=O)Nc2ccc(F)c(C(F)(F)F)c2)[C@H]2CC[C@@H]1/C2=C\C1CC1` (single isomer, unassigned) [compound 515], for which the EC50 was found to be 17.2 nM.

In the case of `COc1ccc(C2CCCN(C(=O)C(=O)O)C2)cc1C(=O)NC1C2CCC(/C2=C/C(F)(F)F)C1C(=O)Nc1ccc(F)c(C(F)(F)F)c1` (centres unmarked) [compound 368], the EC50 came out at 639 nM.

Take `COc1ccc(C2=NO[C@@H]3[C@H](O)CC[C@H]23)cc1C(=O)N[C@H]1[C@@H](C(=O)Nc2ccc(F)c(C(F)(F)F)c2)[C@H]2CC[C@@H]1/C2=C\C1CC1` (single isomer, unassigned) [compound 583]: the 50% effective concentration (EC50) is 74.9 nM.

In the case of `COc1ccc(-c2cc(C(=O)O)ccc2F)cc1C(=O)N[C@@H]1C2CCC(/C2=C/C2CC2)[C@@H]1C(=O)NC1CCc2ccccc2C1` (some centres unmarked) [compound 299], the concentration for a half-maximal effect (EC50) came out at 227 nM.

Take `COc1ccc(C2=NOC3COCC23)cc1C(=O)N[C@H]1[C@@H](C(=O)NCc2ccc(Cl)cc2Cl)[C@H]2CC[C@@H]1/C2=C\C1CC1` (some centres unmarked) [compound 646]: the concentration for a half-maximal effect (EC50) came to 240 nM.

In the case of `COc1cc(F)c(F)cc1C(=O)N[C@@H]1C2CCC(C2=C(C)C)[C@@H]1C(=O)Nc1cccc(S(=O)(=O)C(F)(F)F)c1` (some centres unmarked) [compound 55], the EC50 was 230 nM.

For `COc1ccc(Br)cc1C(=O)N[C@@H]1C2CCC(/C2=C\c2ccccc2)[C@@H]1C(=O)Nc1ccc(F)c(C(F)(F)F)c1` (some centres unmarked) [Example 78], the 50% effective concentration (EC50) stood at 1900 nM.

Regarding `COc1ccc(C2=NOC3CC(C(N)=O)CC23)cc1C(=O)N[C@H]1[C@@H](C(=O)Nc2ccc(F)c(C(F)(F)F)c2)[C@H]2CC[C@@H]1/C2=C\C(F)(F)F` (single isomer, unassigned) [compound 482], the concentration for a half-maximal effect (EC50) stood at 6.8 nM.

Consider `COc1ccc(C2=NO[C@@H]3C[C@H](CO)CN23)cc1C(=O)N[C@H]1[C@@H](C(=O)N[C@H](C)C2(C)CC2)[C@H]2CC[C@@H]1/C2=C\C1CC1` [compound 768], for which the half-maximal effective concentration (EC50) worked out at 3 nM.

For `COc1ccc(-c2cc(C3=NOC(C(=O)O)C3)ccc2F)cc1C(=O)N[C@H]1[C@@H](C(=O)Nc2ccc(F)c(C(F)(F)F)c2)[C@H]2CC[C@@H]1/C2=C\C1CCCC1` (some centres unmarked) [compound 913], the 50% effective concentration (EC50) was 9 nM.

As to `COc1ccc(-c2cc(C(O)C(=O)O)ccc2F)cc1C(=O)NC1C2CCC(/C2=C/C2CCC2)C1C(=O)Nc1ccc(F)c(C(F)(F)F)c1` (centres unmarked) [compound 356], the half-maximal effective concentration (EC50) came to 5 nM.

With `COc1ccc(C2=NOC3CC(CO)CC23)cc1C(=O)N[C@@H]1C2CCC(/C2=C/C2CC2)[C@@H]1C(=O)Nc1ccc(F)c(C(F)(F)F)c1` (single isomer, unassigned) [compound 433], the EC50 came to 2 nM.

With `COc1ccc(-c2cnc3n2CC(O)CC3)cc1C(=O)N[C@H]1[C@@H](C(=O)Nc2ccc(F)c(C(F)(F)F)c2)[C@H]2CC[C@@H]1/C2=C\C1CC1` (some centres unmarked) [compound 752], the EC50 worked out at 2.5 nM.

Turning to `CN(C)c1c(Cl)cc(C2=NOC3COCC23)cc1C(=O)N[C@H]1[C@@H](C(=O)Nc2ccc(F)c(C(F)(F)F)c2)[C@H]2CC[C@@H]1/C2=C\C(F)(F)F` (single isomer, unassigned) [compound 556], the concentration for a half-maximal effect (EC50) turned out to be 41.7 nM.

With `COc1ccc(-c2cc(C(OC(=O)Nc3ccccc3F)C(F)(F)F)ccc2F)cc1C(=O)N[C@@H]1C2CCC(/C2=C/C2CC2)[C@@H]1C(=O)Nc1ccc(F)c(C(F)(F)F)c1` (some centres unmarked) [compound 223], the EC50 came to 2 nM.

In the case of `COc1cc(F)c(F)cc1C(=O)N[C@@H]1C2CCC(/C2=C/c2ccccc2)[C@@H]1C(=O)Nc1cccc(S(=O)(=O)C(F)(F)F)c1` (some centres unmarked) [Example 127], the EC50 came to 49 nM.

With `COc1ccc(-c2cc([C@H](O)C(F)(F)F)ccc2F)cc1C(=O)N[C@H]1[C@@H](C(=O)Nc2ccc(F)c(C(F)(F)F)c2)[C@H]2CC[C@@H]1/C2=C\C1CCC1` [compound 921], the EC50 turned out to be 8.2 nM.

`COc1cc(F)c(F)cc1C(=O)N[C@@H]1C2CCC(/C2=C/c2ccco2)[C@@H]1C(=O)Nc1ccc(F)c(C(F)(F)F)c1` (some centres unmarked) [compound 123]: the EC50 is 210 nM.

Regarding `COc1ccc(C2=NOC3CC(CO)CC23)cc1C(=O)N[C@@H]1C2CCC(/C2=C/C2CC2)[C@@H]1C(=O)Nc1ccc(F)c(OC(F)(F)F)c1` (some centres unmarked) [compound 972], the EC50 worked out at 1.9 nM.

Regarding `COc1ccc(C2=NOC3CCCC23)cc1C(=O)N[C@@H]1C2CCC(/C2=C/C2CC2)[C@@H]1C(=O)Nc1ccc(F)c(C(F)(F)F)c1` (stereo partly drawn) [Example 439, (1R,2S,3R,4R,Z)-7-(cyclopropylmethylene)-N-(4-fluoro-3-(trifluoromethyl)phenyl)-3-(2-methoxy-5-(3a,5,6,6a-tetrahydro-4H-cyclopenta[d]isoxazol-3-yl)benzamido)bicyclo[2.2.1]heptane-2-carboxamide], the EC50 is 30 nM.

Regarding `COc1ccc(C2=NO[C@H]3C[C@H](CO)CN23)cc1C(=O)N[C@H]1[C@@H](C(=O)Nc2ccc(F)c(C(F)(F)F)c2)[C@H]2CC[C@@H]1/C2=C\CC(C)C` [compound 838], the concentration giving a half-maximal response (EC50) is 4.4 nM.

On to `COc1c(F)cc(C2=NOC3CC(CO)CC23)cc1C(=O)N[C@H]1[C@@H](C(=O)N[C@H](C)C23CC(C2)C3)[C@H]2CC[C@@H]1/C2=C\C1CC1` (some centres unmarked) [compound 776], for which the half-maximal effective concentration (EC50) came to 5 nM.

As usually defined, the EC50 is the concentration needed to bring the measured effect to its halfway point.
